Assay results from patent US20190240172A1, “PHARMACEUTICAL COMPOSITION FOR PREVENTING OR TREATING DIABETES AND/OR […] COMPRISING MIDODRINE OR PHARMACEUTICALLY ACCEPTABLE SALT THEREOF AS ACTIVE INGREDIENT” (Cellvertics Co., Ltd., priority 2016, published 2019).
Marks after values point to notes of the source that are not given here.

How the values were obtained:
preadipocytes (3T3-L1) = assay: Western blot of PPAR-δ, p-AMPK and PGC-1α in midodrine-treated adipocytes; type: cell-based, mouse; conditions: midodrine-treated adipocytes (3T3-L1), FIG. 8B
Protocol: (§1) The 3T3-L1 cells were grown in a medium (DMEM) containing 10% FBS (fetal bovine serum) and 1% antibiotic until 100% and then cultured for 48 hours after replacing the medium with a fresh medium. After adding a differentiation medium and the drug, the cells were cultured for 48 hours. The composition of the differentiation medium was as follows: 0.0125 μmol/mL dexamethasone, 12.5 μmol/mL 3-isobutyl-1-methylxanthine, 10 μg/mL insulin, 10% FBS. After treating with the differentiation medium for 48 hours, the medium was replaced with an insulin medium containing 10 μg/mL insulin and 10% FBS and then treated for 48-96 hours. Then, after replacing the medium with a normal medium containing 10% FBS only, the cells were cultured for 24-48 hours and then used for experiments.
In addition, when western blotting was conducted on the midodrine-treated adipocytes according to the method of Example 2-3, the expression of […], p-AMPK and PGC-1α proteins suppressing fat synthesis/accumulation was increased as shown in FIG. 8B.

[1] = system: SDH (succinate dehydrogenase); assay: Enzymatic activity of SDH in skeletal muscle of SHR; type: in vivo, spontaneously hypertensive rat (SHR); conditions: among groups I-IV, FIG. 3A
Protocol: After adding 10 μL of protease inhibitor cocktail per 1 mL of PBS (phosphate-buffered saline) to each well (500 μL), 410 μL of a culture solution prepared by mixing 1 M phosphate buffer (25 μL×25=625 μL), 0.2 M sodium succinate (125 μL×25=3125 μL), NBT (25 μL×25=625 μL) and D.W. (235 μL×25=5875 μL) per well was heated to 37° C. for 20 minutes. […] After conducting centrifugation at 13000 rpm and 4° C. for 5 minutes, the supernatant was recovered and transferred to a fresh tube. After adding 410 μL of a culture solution to a tube, enzymatic reaction was conducted by adding 90 μL of the sample. After adding 410 μL of distilled water (DW) to another tube and adding 90 μL of the sample, the absorbance of the dilute was measured. After adding the enzymatic reaction tube and the another tube in water bath at 37° C., respectively, reaction was conducted for 30 minutes. The reaction was terminated by putting the tube in ice. After adding 200 μL to each well of a 96-well plate, absorbance was measured at 550 nm. Then, the enzymatic activity of succinate dehydrogenase (SDH) was measured by the following equation.
Enzymatic activity=(absorbance of enzymatic reaction solution−absorbance of diluted enzymatic reaction solution)/protein content (Bradford 595 nm)

[2] = ATP level in tissue by ELISA; type: in vivo, spontaneously hypertensive rat (SHR); conditions: SHR, compared to control SHRs, FIG. 4
Protocol: 0.02 g of liver tissue isolated from the rats of Example 1-2 was homogenized in 500 μL of PBS. The homogenate was centrifuged at 1500×g (or 5000 rpm) for 15 minutes and the supernatant was recovered. After adding 100 μL of standard materials or samples to adequate wells of a pre-coated microtiter plate, 10 μL of the remaining solution was added to the sample. After adding 50 μL of the conjugate to each well and then mixing, the plate was covered and incubation was conducted at 37° C. for 1 hour. After adding 50 μL of each of substrates A and B to each well, incubation was conducted at 37° C. for 15 minutes. After adding a stop solution to each well, optical density was measured at 450 nm using a microplate reader.
The ATP level in the heart, skeletal muscle and liver of basal 4-week-old rat (I), midodrine-administered rat (II), atenolol-administered rat (III) and unadministered 8-week-old control rat (IV) was measured by ELISA according to the method of Example 2-1.

[3] = Blood adiponectin by ELISA, normalized to visceral fat weight; type: in vivo, spontaneously hypertensive rat (SHR); conditions: SHR, 4 weeks in drinking water, mean ± SD
From the text: The measured adiponectin level was normalized to the visceral fat weight (g).

[4] = system: HMG-CoA reductase protein (HMGCR); assay: Expression of HMG-CoA reductase protein in liver of SHR; type: in vivo, spontaneously hypertensive rat (SHR); conditions: among rat groups, FIG. 7
[5] = system: mouse skeletal muscle cells (C2C12); assay: Western blot of p-AMPK and PPAR-δ in midodrine-treated skeletal muscle cells; type: cell-based; conditions: FIG. 1
Protocol: (§2) The L6 and HL1 cells were grown in a medium (DMEM) containing 10% FBS (fetal bovine serum) and 1% antibiotic until about 80% confluence, and then the medium was replaced with a medium containing 1% FBS for differentiation for 4 days. The drug was treated on day 3 of differentiation. All in-vitro experiments using the L6 and HL1 cells were conducted 24 hours after the drug treatment.
(§3) In order to investigate the effect of α1-AR stimulation on AMPK and AMPK phosphorylation (activation) in vitro, the mouse skeletal muscle cells […] and the mouse cardiac muscle cells (HL1) cultured in Example 1-1 were treated with 30 μM of midodrine, which is an α1-AR agonist, and then western blot was conducted as described in Example 2-3.

[6] = system: AMPK/PPAR-δ/PGC1α proteins; assay: Western blot of AMPK, PPAR-δ and PGC-1α proteins in cardiac muscle, skeletal muscle, fat and liver of SHR
cytochrome c oxidase = assay: Immunohistochemical staining for cytochrome c oxidase in skeletal muscle tissue of SHR; type: in vivo, spontaneously hypertensive rat (SHR); conditions: among groups I-IV, FIG. 3B
[7] = system: spontaneously hypertensive rat (SHR); assay: Cardiac function by M-mode echocardiography and heart rate in SHR; conditions: for Diastolic left ventricular inner diameter / Diastolic left ventricular posterior wall / Diastolic left ventricular wall / Left ventricular ejection fraction / Left ventricular fractional shortening / Left ventricular mass measured by ASE / Systolic left ventricular inner diameter / left ventricular performance: 8-week-old SHR, echocardiography; for Diastolic left ventricular inner diameter / Diastolic left ventricular posterior wall / Diastolic left ventricular wall / Left ventricular ejection fraction / Left ventricular fractional shortening / Left ventricular mass measured by ASE / Systolic left ventricular inner diameter: 4 weeks in drinking water (midodrine 0.3 mg/kg/day, atenolol 1 mg/kg/day), mean ± SD; for left ventricular performance: compared with unadministered control group IV
[8] = Body weight, heart weight and abdominal fat weight in SHR; type: in vivo, spontaneously hypertensive rat (SHR)
Protocol: Body weight was measured for the same rats whose cardiac function was measured.
When the body weight and the weight of abdominal fat (visceral fat) were measured for the midodrine-administered rat (II), atenolol-administered rat (III) and unadministered 8-week-old hypertensive control rat (IV) of Example 1-2, midodrine administration decreased both the body weight and abdominal fat as shown in FIG. 9.

[9] = system: mouse-derived preadipocytes (3T3-L1); assay: Fat content in adipocytes observed by microscope; type: cell-based; conditions: FIG. 8A
Protocol: as §1

[10] = system: mouse cardiac muscle cells (HL1); assay: Western blot of p-AMPK and PPAR-δ in midodrine-treated cardiac muscle cells; type: cell-based; conditions: FIG. 1
Protocol: as §2, §3

[11] = 8-week-old SHR, 4 weeks in drinking water (midodrine 0.3 mg/kg/day, atenolol 1 mg/kg/day), mean ± SD

COc1ccc(OC)c(C(O)CNC(=O)CN)c1 (racemic) [Midodrine, (RS)—N-[2-(2,5-dimethoxyphenyl)-2-hydroxyethyl]glycinamide]
expression of PGC-1α protein (preadipocytes (3T3-L1)): increased
expression of PPAR-5 protein (preadipocytes (3T3-L1)): increased
expression of p-AMPK protein (preadipocytes (3T3-L1)): increased
enzymatic activity of SDH in skeletal muscle [1]: the highest increase
ATP level in heart tissue [2]: higher
Adiponectin (serum level per weight of visceral fat) [3]: 7585.8 ± 182.3^b ng/mL/g
Adiponectin (serum level per weight of visceral fat) ([3]; listed as group II): remarkably higher
expression level of HMG-CoA reductase protein (HMGCR) in the liver [4]: the lowest
expression of PPAR-δ protein [5]: increases
expression of phosphorylated AMPK ([5]; midodrine 30 μM): increased
AMPK expression in cardiac muscle ([6]; 4 weeks in drinking water, compared to control group IV, FIG. 2B): remarkably higher
AMPK expression in skeletal muscle ([6]; 4 weeks in drinking water, compared to control group IV, FIG. 2C): remarkably higher
AMPK expression in fat ([6]; 4 weeks in drinking water, compared to control group IV, FIG. 2D): remarkably higher
expression level of the phosphorylated AMPK protein in the liver ([6]; among groups I-IV, FIG. 2E): the highest
activation and expression of AMPK, PPAR-δ and PGC-1α in the heart, skeletal muscle and liver ([6]; summary statement): induces activation and increased expression
cytochrome c oxidase immunohistochemical staining in skeletal muscle tissue (cytochrome c oxidase): the highest increase
Diastolic left ventricular inner diameter [7]: 6.06 ± 0.42^a mm
Diastolic left ventricular posterior wall [7]: 1.54 ± 0.13^a mm
Diastolic left ventricular wall [7]: 1.46 ± 0.13^a mm
Left ventricular ejection fraction [7]: 81.55 ± 6.12^a %
Left ventricular fractional shortening [7]: 45.48 ± 6.25^a %
Left ventricular mass measured by ASE [7]: 1.04 ± 0.06 g
Systolic left ventricular inner diameter [7]: 3.32 ± 0.54^a mm
Left ventricular mass measured by ASE ([7]; listed as group II): the lowest
left ventricular performance [7]: higher
cardiac hypertrophy or further increase in blood pressure ([7]; SHR, summary statement, no blood pressure method described): without cardiac hypertrophy or further increase in blood pressure
Body weight [8, 11]: 238.24 ± 11.69^a g
Hear weight [8, 11]: 1.47 ± 0.16^a g
Body weight ([8]; SHR groups II, III and IV, FIG. 9 (A)): decreased
weight of abdominal fat (visceral fat) ([8]; SHR groups II, III and IV, FIG. 9 (B)): decreased
fat content in adipocytes ([9]; 3T3-L1, 30 μM/L midodrine, microscope): decreased
expression of PPAR-δ protein [10]: increases
expression and phosphorylation of AMPK ([10]; midodrine 30 μM): resulted in the expression and phosphorylation of AMPK

CC(C)NCC(O)COc1ccc(CC(N)=O)cc1 (stereo not shown) [Atenolol, atenolol]
ATP level in heart tissue [2]: higher
Adiponectin (serum level per weight of visceral fat) [3]: 6136.5 ± 574.7^b,c ng/mL/g
expression level of HMG-CoA reductase protein (HMGCR) in the liver [4]: the lowest
Diastolic left ventricular inner diameter [7]: 6.33 ± 0.35^a mm
Diastolic left ventricular posterior wall [7]: 1.67 ± 0.16 mm
Diastolic left ventricular wall [7]: 1.50 ± 0.13^a mm
Left ventricular ejection fraction [7]: 82.00 ± 5.31^a %
Left ventricular fractional shortening [7]: 45.70 ± 5.82^a %
Left ventricular mass measured by ASE [7]: 1.10 ± 0.07^a g
Systolic left ventricular inner diameter [7]: 3.43 ± 0.28^a mm
left ventricular performance [7]: higher
heart rate ([7]; SHR from 4 weeks of age, measured over 1 month, at the end of the experiment, among three groups, FIG. 6): the lowest
Body weight [8, 11]: 296.46 ± 16.73^b g
Hear weight [8, 11]: 1.47 ± 0.15^a g
Body weight ([8]; 8-week-old SHR, 4 weeks in drinking water (midodrine 0.3 mg/kg/day, atenolol 1 mg/kg/day), mean ± SD, listed as group III): the highest

COC(=O)c1sccc1S(=O)(=O)Nc1ccc(Nc2ccccc2)cc1OC [GSK0660]
effect on fat content in adipocytes when GSK0660 is added to midodrine ([9]; 3T3-L1, 30 μM/L midodrine + 50 μM/L GSK0660 mixture (1:2 (w/w))): the effect of midodrine was decreased
